Results as given in patent publication US4879303A, “Pharmaceutically acceptable salts” (priority 1986, dated 1989).
Structures can show the parent of a compound that is named as a salt. Where two headings read alike, the source gives them in different places.

Legend:
[1] = Aqueous solubility of amlodipine salts and pH at saturation; assay type: physicochemical; conditions: for solubility (in words): qualitative statement
Source text: Although amlodipine is effective as the free base, in practice it is best administered in the form of a salt of a pharmaceutically acceptable acid.
1. Generally, it is known in the art that a good aqueous solubility is necessary for good bioavailability. […] In addition, salts which provide solutions having a pH close to that of blood (7.4) are preferred because they are readily biocompatible and can easily be buffered to the required pH range without altering their solubility.

[2] = Chemical stability of salts blended in powder vehicle (tablets or capsules), breakdown products by tlc, ranked
Method: In order to screen for chemical stability, each of the salts was blended in a powder vehicle and formed into tablets or capsules. In the case of tablets the vehicle comprised microcrystalline cellulose in 50:50 combination with anhydrous dibasic calcium phosphate. In the case of capsules the vehicles comprised mannitol in 4:1 combination with dried maize starch. These were then stored in sealed vials at 50° and 75° C. for up to three weeks. The drug and any breakdown products were extracted with methanol:chloroform (50:50) and separated on silica tlc plates using a variety of solvent systems.
The results were compared and the salts ranked according to the number and amount of breakdown product produced.

[3] = Hygroscopicity: moisture pick-up on exposure to relative humidity; assay type: physicochemical; conditions: for moisture pick-up: 75% relative humidity, 37° C., 24 hours; for hydration state after exposure: 95% relative humidity, 30° C., 3 days
Source text: 3. In order to provide stable formulations it is desirable to have a non-hygroscopic salt. In the solid state where drug content is high, absorbed films of moisture can act as a vector for hydrolysis and chemical breakdown. It is the hygroscopic nature of a drug or its salt which contributes to the free moisture which is normally responsible for instability.
Therefore the besylate salt can be considered to be non-hygroscopic and thus provides stale formulations while minimising the risk of intrinsic chemical breakdown.

[4] = Stickiness: amlodipine sticking to tablet punch (processability); assay type: physicochemical; conditions: for Stickiness: runs of 50 to 300 tablets, calcium sulphate dihydrate/microcrystalline cellulose/salt 47.5:47.5:5, average from slope; for processability / anti-adhesion properties (in words): qualitative statement
Source text: 4. The final characteristic of an acceptable salt to be considered is the processability, i.e. the compression properties and also the ability not to stick or adhere to the tablet making machinery. For high dose formulations, good compressibility is very important to make elegant tablets. With lower dose tablets the need for good compressibility can be eliminated to a certain extent by the use of suitable diluting excipients called compression aids. Microcrystalline cellulose is a commonly used compression aid. However whatever the dose the adhesion of the drug to the punches of the tablet machine must be avoided. When drug accumulates on the punch surfaces this causes the tablet surface to become pitted and therefore unacceptable. […] In practice it is possible to reduce sticking by wet-massing, careful selection of excipients and the use of high levels of anti-adherents, e.g. magnesium stearate. […] This procedure was then repeated for runs of 100, 150, 200, 250 and 300 tables. After each run the amount of material sticking to the tablet punch was measured after extraction with methanol. The values are plotted and an average value calculated from the slope of the line produced. This same procedure was then repeated for each of the salts of amlodipine.

[5] = assay type: physicochemical
Source text: Consequently a range of pharmaceutically acceptable salts of amlodipine has been made and evaluated using these criteria: […]

[6] = Hydration / composition after isolation of the salt; assay type: physicochemical; conditions: after manufacture
[7] = listed as Toluene sulphonate (tosylate)
[8] = listed as Benzene sulphonate (besylate)
[9] = listed as besylate salt of amlodipine

| SMILES | solubility [1] [µg/mL] | pH at saturation [1] | Stability (rank order) [2] | moisture pick-up [3] | hydration state after exposure [3] | Stickiness relative to maleate [4] [%] | Stickiness [4] | also measured |
| --- | --- | --- | --- | --- | --- | --- | --- | --- |
| CCOC(=O)C1=C(COCCN)NC(C)=C(C(=O)OC)C1c1ccccc1Cl (stereo not drawn) [Acetate] | 50000 | 6.6 | .dwnarw. |  |  |  |  |  |
| CCOC(=O)C1=C(COCCN)NC(C)=C(C(=O)OC)C1c1ccccc1Cl (stereo not drawn) [Tosylate] |  |  | .dwnarw. | do not pick up any moisture | formed the dihydrate salt | 98 | 1.95 g Amlodipine cm^-2 tablet^-1 | pH at saturation [1, 7]: 5.9; solubility [1, 7]: 900 µg/mL |
| CCOC(=O)C1=C(COCCN)NC(C)=C(C(=O)OC)C1c1ccccc1Cl (stereo not drawn) [Maleate] | 4500 | 4.8 | .dwnarw. | do not pick up any moisture | remain anhydrous | 100 | 1.98 g Amlodipine cm^-2 tablet^-1 | stability in solution [5]: tends to break-down in solution after a few weeks; solubility (in words) [1]: excellent solubility |
| CCOC(=O)C1=C(COCCN)NC(C)=C(C(=O)OC)C1c1ccccc1Cl (stereo not drawn) [Salicylate] | 1000 |  |  |  |  |  |  | Stability (rank order) ([2]; powder vehicle tablets or capsules, sealed vials, 50° and 75° C., up to three weeks, ranked by number and amount of breakdown product, listed from most stable to unstable): .dwnarw. |
| CCOC(=O)C1=C(COCCN)NC(C)=C(C(=O)OC)C1c1ccccc1Cl (stereo not drawn) [Free base, 3-ethyl 5-methyl 2-(2-aminoethoxymethyl)-4-(2-chlorophenyl)-1,4-dihydro-6-methylpyridine-3,5-dicarboxylate] |  |  |  |  |  | 102 | 2.02 g Amlodipine cm^-2 tablet^-1 |  |
| CCOC(=O)C1=C(COCCN)NC(C)=C(C(=O)OC)C1c1ccccc1Cl (stereo not drawn) [Besylate, amlodipine benzenesulphonate] |  |  | most stable | do not pick up any moisture | remain anhydrous | 59 | 1.17 g Amlodipine cm^-2 tablet^-1 | pH at saturation [1, 8]: 6.6; solubility [1, 8]: 4600 µg/mL; solubility (in words) [1, 9]: good solubility characteristics; hygroscopicity (overall conclusion) [3]: non-hygroscopic; hygroscopicity (overall conclusion) [3, 9]: non-hygroscopicity; processability / anti-adhesion properties (in words) [4]: superior anti-adhesion properties to the maleate; processability / anti-adhesion properties (in words) [4, 9]: good processability; stability (overall conclusion) [2]: good stability |
| CCOC(=O)C1=C(COCCN)NC(C)=C(C(=O)OC)C1c1ccccc1Cl (stereo not drawn) [Succinate] | 4400 | 4.9 | .dwnarw. |  |  | 121 | 2.39 g Amlodipine cm^-2 tablet^-1 |  |
| CCOC(=O)C1=C(COCCN)NC(C)=C(C(=O)OC)C1c1ccccc1Cl (stereo not drawn) [Mesylate] |  |  | .dwnarw. |  |  | 58 | 1.16 g Amlodipine cm^-2 tablet^-1 | pH at saturation ([1]; listed as Methane sulphonate (mesylate)): 3.1; hydration after isolation as the anhydride [6]: equilibrates to the monohydrate; processability / anti-adhesion properties (in words) [4]: good processability |
| CCOC(=O)C1=C(COCCN)NC(C)=C(C(=O)OC)C1c1ccccc1Cl (stereo not drawn) [Hydrochloride] | 50000 | 3.5 |  |  |  | 127 | 2.51 g Amlodipine cm^-2 tablet^-1 |  |
